Biological target: WT HIV-1 protease (Human immunodeficiency virus type 1 group M subtype B (isolate HXB2) (HIV-1), UniProt P04585)
Assay: Assay for inhibition of microbial expressed HIV protease (Procedure A, peptide substrate, HPLC fluorescence detection)
Format: biochemical
Conditions: WT HIV-1 protease 10 pM, substrate 400 micromolar, pH 5.5, 30 min preincubation, 1 hour at 30° C.; read-out: Enzyme inhibition IC50
Procedure: The inhibition of WT HIV-1 protease was studied using the reaction of the protease (expressed in Eschericia coli) with a peptide substrate [Val-Ser-Gln-Asn-(betanaphthyl)Ala-Pro-Ile-Val (SEQ ID NO:1)]. Compounds were tested using Procedure A. In Procedure A, the test compound was first preincubated with the enzyme in assay buffer (50 mM sodium acetate, pH 5.5, 100 mM NaCl, and 0.1% BSA) for 30 minutes at room temperature. Substrate was then added to 400 micromolar in a total volume of 80 microliters containing 10 picomolar HIV-1 protease and the reaction was incubated for 1 hour at 30° C. The reaction was quenched with the addition of 120 microliters of 10% phosphoric acid. The product formation was determined after separation of product and substrate on a Zorbax Eclipse XDB-C18 column (Agilent Technologies, Santa Clara, Calif.) connected to an Agilent 1100 high performance liquid chromatography system with fluorescence detection (excitation 270 nanometer and emission 330 nanometer).

## COC(=O)N[C@H](C(=O)NCc1ccc([C@@H](CO)N(Cc2nonc2C)S(=O)(=O)c2ccc(N)cc2)s1)C(c1ccccc1)c1ccccc1 [Example 18]
  IC50: 6.95 nM

## COC(=O)N[C@H](C(=O)N[C@H](c1ccc([C@@H](CO)N(CCC(C)(C)C)S(=O)(=O)c2ccc(-c3cnco3)cc2)s1)C(F)(F)F)C(c1ccccc1)c1ccccc1 [Example 90, N-[(1S)-1-(5-{(1R)-1-[(3,3-dimethylbutyl){[4-(1,3-oxazol-5-yl)phenyl]sulfonyl}amino]-2-hydroxyethyl}thiophen-2-yl)-2,2,2-trifluoroethyl]-Nα-(methoxycarbonyl)43-phenyl-L-phenylalaninamide]
  IC50: 25.9 nM

## COC(=O)N[C@H](C(=O)N[C@H](c1ccc([C@@H](CO)N(CCC(C)(C)C)S(=O)(=O)c2ccc3ocnc3c2)s1)C(F)(F)F)C(c1ccccc1)c1ccccc1 [Example 96, N-[(1S)-1-(5-{(1R)-1-[(1,3-benzoxazol-5-ylsulfonyl)(3,3-dimethylbutyl)amino]-2-hydroxyethyl}thiophen-2-yl)-2,2,2-trifluoroethyl]-Nα-(methoxycarbonyl)-β-phenyl-L-phenylalaninamide]
  IC50: 1.95 nM

## COC(=O)N[C@H](C(=O)N[C@H](c1ccc([C@@H](CO)N(CCC(C)(C)C)S(=O)(=O)c2ccc(-n3cnnn3)cc2)s1)C(F)(F)F)C(c1ccccc1)c1ccccc1 [Example 111, N-((1S)-1-{5-[(1R)-1-((3,3-dimethylbutyl){[4-(1H-tetrazol-1-yl)phenyl]sulfonyl}amino)-2-hydroxyethyl]-2-thienyl}-2,2,2-trifluoroethyl)-Nα-(methoxycarbonyl)-β-phenyl-L-phenylalaninamide]
  IC50: 19.3 nM

## COC(=O)N[C@H](C(=O)NC(C)c1ccc(C(CO)N(CCC(C)C)S(=O)(=O)c2ccccc2)s1)C(c1ccccc1)c1ccccc1 (stereo partly drawn) [Example 7, N-[1-(5-{2-hydroxy-1-[(3-methylbutyl)(phenylsulfonyl)amino]ethyl}thiophen-2-yl)ethyl]-Nα-(methoxycarbonyl)-β-phenyl-L-phenylalaninamide]
  IC50: 3.5 nM

## COC(=O)N[C@H](C(=O)NCc1cc(C(CO)N(CCC(C)C)S(=O)(=O)c2ccccc2)cs1)C(c1ccccc1)c1ccccc1 (stereo partly drawn) [Example 6, N-[(4-{2-hydroxy-1-[(3-methylbutyl)(phenylsulfonyl)amino]ethyl}thiophen-2-yl)methyl]-Nα-(methoxycarbonyl)-β-phenyl-L-phenylalaninamide]
  IC50: 42.7 nM

## CC(C)CN(C(CO)c1ccc(CNC(=O)C(NC(=O)c2ccccc2)C(c2ccccc2)c2ccnc3ccccc23)s1)S(=O)(=O)c1ccc2ncsc2c1 (stereo not shown) [Example 125, N-[1-[[5-[1-(1,3-benzothiazol-6-ylsulfonyl(isobutyl)amino)-2-hydroxy-ethyl]-2-thienyl]methylcarbamoyl]-2-phenyl-2-(4-quinolyl)ethyl]benzamide]
  IC50: 409 nM

## COC(=O)N[C@H](C(=O)N[C@H](c1ccc([C@@H](CO)N(CCC2CC2)S(=O)(=O)c2ccc(N)cc2)s1)C(F)(F)F)C(c1ccccc1)c1ccccc1 [Example 86]
  IC50: 0.34 nM

## [2H]C([2H])([2H])C(N([C@H](CO)c1ccc([C@@H](NC(=O)[C@@H](NC(=O)OC)C(c2ccccc2)c2ccccc2)C(F)(F)F)s1)S(=O)(=O)c1ccc(N)cc1)C([2H])([2H])[2H] [Example 47, N-[(1S)-1-{5-[(1R)-1-{[(4-aminophenyl)sulfonyl][(1,1,1,3,3,3-^2H6)propan-2-yl]amino}-2-hydroxyethyl]thiophen-2-yl}-2,2,2-trifluoroethyl]-Nα-(methoxycarbonyl)-β-phenyl-L-phenylalaninamide]
  IC50: 33.7 nM

## COC(=O)N[C@H](C(=O)NCc1ccc([C@@H](CO)N(CC2CC(F)(F)C2)S(=O)(=O)c2ccc(N)c(F)c2)s1)C(c1ccccc1)c1ccccc1 [Example 43]
  IC50: 5.04 nM

## COC(=O)N[C@H](C(=O)N[C@H](c1ccc([C@@H](CO)N(CCC(C)(C)C)S(=O)(=O)c2ccc(-n3ccnn3)cc2)s1)C(F)(F)F)C(c1ccccc1)c1ccccc1 [Example 113]
  IC50: 25.9 nM

## COC(=O)N[C@H](C(=O)N[C@H](c1ccc([C@@H](CO)N(CCC(C)C)S(=O)(=O)c2ccc(N)cc2)s1)C(F)(F)F)C(c1ccccc1)c1ccccc1 [Example 83, N-[(1S)-1-{5-[(1R)-1-{[(4-aminophenyl)sulfonyl](3-methylbutyl)amino}-2-hydroxyethyl]thiophen-2-yl}-2,2,2-trifluoroethyl]-Nα-(methoxycarbonyl)-β-phenyl-L-phenylalaninamide]
  IC50: 0.3 nM

## COC(=O)N[C@H](C(=O)NCc1ccc([C@@H](CO)N(Cc2cc3cccnc3[nH]2)S(=O)(=O)c2ccc(N)cc2)s1)C(c1ccccc1)c1ccccc1 [Example 13]
  IC50: 3.9 nM

## COC(=O)N[C@H](C(=O)N[C@H](c1ccc([C@@H](CO)N(CCC(C)(C)C)S(=O)(=O)c2ccc(N)cc2)s1)C(F)(F)F)C(c1ccccc1)c1ccccc1 [Example 44, N-[(1S)-1-{5-[(1R)-1-{[(4-aminophenyl)sulfonyl](3,3-dimethylbutyl)amino}-2-hydroxyethyl]thiophen-2-yl}-2,2,2-trifluoroethyl]-Nα-(methoxycarbonyl)-β-phenyl-L-phenylalaninamide]
  IC50: 0.196 nM

## CC(C)CN(C(CO)c1ccc(CNC(=O)C(NC(=O)c2ccccc2)C(c2ccccc2)c2ccncc2F)s1)S(=O)(=O)c1ccc2ncsc2c1 (stereo not shown) [Example 124, N-[1-[[5-[1-(1,3-benzothiazol-6-ylsulfonyl(isobutyl)amino)-2-hydroxy-ethyl]-2-thienyl]methylcarbamoyl]-2-(3-fluoro-4-pyridyl)-2-phenyl-ethyl]benzamide]
  IC50: 568 nM

## COC(=O)N[C@H](C(=O)N[C@H](c1ccc([C@@H](CO)N(CCC(C)(C)C)S(=O)(=O)c2ccc3ncnn3c2)s1)C(F)(F)F)C(c1ccccc1)c1ccccc1 [Example 118, N-[(1S)-1-(5-{(1R)-1-[(3,3-dimethylbutyl)([1,2,4]triazolo[1,5-a]pyridin-6-ylsulfonyl)amino]-2-hydroxyethyl}thiophen-2-yl)-2,2,2-trifluoroethyl]-Nalpha-(methoxycarbonyl)-beta-phenyl-L-phenylalaninamide]
  IC50: 2.43 nM

## COC(=O)N[C@H](C(=O)NCc1ccc(C(CO)N(CCC(C)C)S(=O)(=O)c2ccc(CO)cc2)s1)C(c1ccccc1)c1ccccc1 (stereo partly shown) [Example 5]
  IC50: 0.54 nM

## COC(=O)N[C@H](C(=O)NCc1ccc([C@@H](CO)N(CC2CC(F)(F)C2)S(=O)(=O)c2ccc3cc[nH]c3c2)s1)C(c1ccccc1)c1ccccc1 [Example 41]
  IC50: 8.83 nM

## COC(=O)N[C@H](C(=O)NCc1ccc([C@@H](CO)N(Cc2cc3ccccc3[nH]2)S(=O)(=O)c2ccc3scnc3c2)s1)C(c1ccccc1)c1ccccc1 [Example 25]
  IC50: 7.99 nM

## CCC(NC(=O)[C@@H](NC(=O)OC)C(c1ccccc1)c1ccccc1)c1ccc(C(CO)N(CCC(C)C)S(=O)(=O)c2ccc(CO)cc2)s1 (stereo partly shown) [Example 9]
  IC50: 0.63 nM

## CC(C)CN(C(CO)c1ccc(CNC(=O)C(NC(=O)c2ccccc2)C(c2ccccc2)c2cn[nH]c2)s1)S(=O)(=O)c1ccc2ncsc2c1 (stereo not shown) [Example 131, N-[1-[[5-[1-(1,3-benzothiazol-6-ylsulfonyl(isobutyl)amino)-2-hydroxy-ethyl]-2-thienyl]methylcarbamoyl]-2-phenyl-2-(1H-pyrazol-4-yl)ethyl]benzamide]
  IC50: 79 nM

## COC(=O)N[C@H](C(=O)NCc1ccc([C@@H](CO)N(CC2CC(F)(F)C2)S(=O)(=O)c2cccc(C(=O)c3ccccn3)c2)s1)C(c1ccccc1)c1ccccc1 [Example 40]
  IC50: 175 nM
